Assay results taken from PMC4815915 (Bioorganic & medicinal chemistry letters, 2015).

Legend:
[1] = test system: Plasmodium falciparum 3D7 strain; assay: In vitro antiplasmodial activity against chloroquine-susceptible 3D7 strain; format: cell-based
[2] = test system: rat microglia TXB2 generation; settings: read-out: TXB2 generation apparent IC50; cited from earlier work

[C-]#[N+]C(C)(C)C[C@@H]1C[C@H](C)[C@H]2CC[C@H](C)[C@@]3([N+]#[C-])CCC(=C)[C@@H]1[C@H]23 [Compound 3, 8,15-diisocyano-11(20)-amphilectene]
Fold more active than the standard drug CQ (3D7) ([1]; antiplasmodial IC50 compared with chloroquine): 5.5 times

CC(C(=O)O)c1ccc(-c2ccccc2)c(F)c1 (stereo not drawn) [flurbiprofen]
IC50 [2]: 100 nM

CCN(CC)CCCC(C)Nc1ccnc2cc(Cl)ccc12 (stereo not drawn) [CQ, chloroquine]
IC50 ([1]; Plasmodium falciparum, 3D7, read-out: 3D7 IC50 ± SE): 6.6 ± 0.0008 nM
